Source: publication PMC8346996, “Antiradical Properties of N-Oxide Surfactants—Two in One” (International Journal of Molecular Sciences, 2021)
Values after ≈ are worked out from the molar mass of the structure shown. Like-named read-outs stand apart in the source and are kept apart here. Marks after values point to notes of the source that are not given here.

Tests used:
[1] = Radical scavenging monitored by EPR spectroscopy, GO•; conditions: after 60 min of reaction; C/CMC = 100
Experimental: (§1) We began with an attempt to determine if the N-oxide surfactants can participate in the radical scavenging process when micelles are well-formed. Thus, the reaction mixtures containing a surfactant at C/CMC = 100, which is a typical concentration found in formulations, and GO• or DPPH• at 2 mM were prepared along with the control samples and monitored over time (solutions of DPPH• and GO• without surfactants).
(§2) The scavenging capacity of the surfactants was judged quantitatively by measuring the percentage of remaining GO• and DPPH• after a fixed reaction time. The relative concentration of GO• and DPPH• was calculated from Equation (1):(1) remaining radical%=It/I0×100% where I0 and It correspond to the EPR signal integral intensity of a radical in the absence and presence of the N-oxide surfactants after a fixed time, respectively.
(§3) The antiradical properties were studied by EPR using a Bruker ELEXYS E500 spectrometer equipped with an NMR gaussmeter and frequency counter. A microwave power of 10 mW, a modulation frequency of 100 kHz, a modulation amplitude of 1 G, a time constant of 82 ms, and a conversion time of 164 ms were adopted. The antiradical properties were evaluated against two model radicals: 2,2-diphenyl-1-picrylhydrazyl (DPPH•) and galvinoxyl (GO•). […]

[2] = Radical scavenging monitored by EPR spectroscopy, DPPH•; conditions: after 60 min of reaction; C/CMC = 100
Experimental: as §1, §2, §3

[3] = DPPH• scavenging kinetics by UV-vis, pseudo-first-order conditions
Experimental: After confirming that the absorption maximum at 517 nm of DPPH• is outside the surfactant’s absorption range, the rate of the DPPH•-scavenging reaction of the N-oxides was measured by monitoring the decrease in absorbance of this maximum. To ensure that the decay of DPPH• obeyed pseudo-first-order kinetics, the concentration of surfactants was at least a 54-fold excess of the DPPH• concentration. As explained in SI, the calculated pseudo-first-order rate constants, kobs, increased linearly with the concentration of Cn(DAPANO)2 and CnPDA (shown in SI). The second-order rate constants k2 for the reaction between the N-oxides and DPPH• were determined from the slopes of the linear plots of kobs vs. the concentration of the surfactants and are given in Figure 6.
The measurements were done under deaerated conditions at 298 K in ethanol solutions (2 mL in a 10 mm quartz cuvette) containing DPPH^• (C = 2.2 × 10^−4 M) and a surfactant at each of five different concentrations, namely C1 = 0.12 M, C2 = 0.09 M, C3 = 0.06 M, C4 = 0.03 M, and C5 = 0.012 M. UV−vis spectral changes associated with the undergoing reaction were monitored at 516 nm, using a Varian Cary 50Conc UV−visible Spectrophotometer. The following equations of the calibration curve were used to calculate DPPH^• concentrations in the reaction system: Abs = 4.0189 × C[mM] + 0.00813 (R^2 = 0.9998). The rate of DPPH^• scavenging reaction was determined using pseudo-first-order kinetics (the concentration of CnPDA or Cn(DAPANO)2 was maintained at more than 54-fold excess of the radical concentration); further details are given as Supporting Information.

[4] = MTT cell viability assay, HaCaT; format: cell-based, human; conditions: human, HaCaT cells (immortalized human keratinocytes), evaluated for CMC
Experimental: (§4) HaCaT (immortalized human keratinocytes from histologically normal skin) cell line was obtained from the CLS Cell Lines Service GmbH (Eppelheim, Germany). HGFs (human gingival fibroblasts) derive from primary cell culture. The cells were isolated according to the procedure described by Saczko et al. and patented by Saczko et al.. Cells were grown in plastic cell culture flasks in Dulbecco’s Modified Eagle’s Medium, supplemented with fetal bovine serum (FBS, Lonza, Morrisville, NC, USA), with 100 IU/mL penicillin, 50 mg streptomycin, and 125 μg amphotericin B (Sigma). The cells were maintained in a humidified atmosphere at 37 °C and 5% CO2. The cells were regularly maintained by systematic passaging. For experimental purposes, the cells were removed by trypsinization (0.25% Trypsin-EDTA, Sigma).
(§5) MTT (Sigma) test was used to determine the viability of HaCaT and HGFs cells. The MTT assay was used to test mitochondrial metabolic functioning. Cells were seeded on flat bottom 96-well tissue culture plates at a density of 10^4 cells/well and allowed to grow in a CO2 incubator at 37 °C overnight. In the case of these studies, the culture medium was removed, surfactant solutions were added, and the cells were exposed for 24 and 48 h to compounds at doses ranging from 50 to 2000 μg/mL. After incubation, MTT assay was applied according to the manufacturer protocol. The absorbance was measured at 570 nm using a multiwell plate reader (EnSpire Multimode Reader, Perkin Elmer). Each experiment was performed in a few independent repetitions. Mean values and standard deviations of all results were calculated. The final results were expressed as the percentage of mitochondrial function relative to untreated control cells.

[5] = system: normal human keratinocytes (HaCaT); assay: MTT cell viability assay, HaCaT; format: cell-based; conditions: Homo sapiens, HaCaT, MTT
Experimental: as §4, §5

[6] = MTT cell viability assay, HGFs; format: cell-based, human; conditions: human, primary human gingival fibroblasts (HGFs), evaluated for CMC
Experimental: as §4, §5

[7] = system: primary fibroblasts (HGFs); assay: MTT cell viability assay, HGFs; format: cell-based, human; conditions: Homo sapiens, Fibroblast, MTT
Experimental: as §4, §5

[8] = set-up: method as in PMID 23098238; conditions: cited from earlier work
[9] = set-up: method as in PMID 23098238; conditions: cited from earlier work; remark: listed apart in the source

Q: Which “reduced the number of GO• by” value [1] does the source give for `CCCCCCCCCCCC(=O)N(CCC[N+](C)(C)[O-])CCC[N+](C)(C)[O-]` [C12(DAPANO)2] here?
A: 88%

Q: And the “reduced the number of DPPH• by” value [2]?
A: 86%

Q: What about the “second-order rate constant k2 for the reaction with DPPH•” value ([3]; ethanol, 298 K, deaerated, DPPH• 2.2 × 10^−4 M, surfactant 0.012-0.12 M) of the same compound?
A: 0.00108 M⁻¹ s⁻¹

Q: What about the “k2 higher in comparison with the CnPDA homolog” value ([3]; reaction with DPPH•) of the same compound?
A: 19%

Q: What about the viability at 24 h ([4]; 24 h) of the same compound?
A: 9.2%

Q: And the viability at 48 h ([4]; 48 h)?
A: 16.4%

Q: And the IC50 ([5]; 24 h incubation, read-out: IC50 HaCaT 24 h)?
A: 95 µg/mL (≈ 237 µM)

Q: What about the IC50 ([5]; 48 h incubation, read-out: IC50 HaCaT 48 h) of the same compound?
A: 94 µg/mL (≈ 234 µM)

Q: And the viability at 24 h ([6]; 24 h, read-out: Viability 24 h HGF’s)?
A: 17.1%

Q: What about the viability at 48 h ([6]; 48 h, read-out: Viability 48 h HGF’s) of the same compound?
A: 10.8%

Q: What about the IC50 ([7]; 24 h incubation, read-out: IC50 HGFs 24 h) of the same compound?
A: 27.9 µg/mL (≈ 69.5 µM)

Q: And the IC50 ([7]; 48 h incubation, read-out: IC50 HGFs 48 h)?
A: 1.2 µg/mL (≈ 2.99 µM)

Q: And the CMC [8]?
A: 5.5·10^−3 a M

Q: What about the “RH DLS” value [9] of the same compound?
A: 2.04 ^a nm
